In patent publication US11390604B2 (Hoffmann-La Roche Inc., priority 2019, dated 2022):
Counter-ions that a name gives are not always drawn.

test system: Acinetobacter baumannii ATCC 17961; experiment: Antimicrobial susceptibility testing: 90% growth inhibitory concentration (IC90) determination; assay type: cell-based; conditions: ATCC17961, Acinetobacter baumannii ATCC 17961, Iso-Sensitest broth, read-out: ATCC 17961 IC90
Outline: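 Broth microdilution in Iso-Sensitest medium, twofold series (e.g. 50 to 0.097 μM final), ~5×10^5 CFU/ml inoculum, 35±2 °C. OD600 read every 20 min over 16 h. IC90 derived from growth inhibition during logarithmic phase.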

In order of falling IC90:
1. CCc1cc(NC(=O)c2ncc(-c3cn(Cc4cccnc4)nc3C(F)(F)F)n2C)ccc1C(=O)N1CCN(C(=O)C2(O)CCNCC2)CC1 [Example 160, N-[3-ethyl-4-[4-(4-hydroxypiperidine-4-carbonyl)piperazine-1-carbonyl]phenyl]-1-methyl-5-[1-(pyridin-3-ylmethyl)-3-(trifluoromethyl)pyrazol-4-yl]imidazole-2-carboxamide;formic acid]  1500 nM
2. CN(C(=O)c1ccc(NC(=O)c2ncc(-c3cn(C4CC4(F)F)nc3C(F)(F)F)n2C)cc1Cl)C1CCNCC1 (stereo not drawn) [Example 368, N-(3-chloro-4-(methyl(piperidin-4-yl)carbamoyl)phenyl)-5-(1-(2,2-difluorocyclopropyl)-3-(trifluoromethyl)-1H-pyrazol-4-yl)-1-methyl-1H-imidazole-2-carboxamide formate]  484 nM
3. Cn1c(-c2cn(CC#N)nc2C(F)(F)F)cnc1C(=O)Nc1ccc(C(=O)N2CCN(C(=O)C3(O)CCNCC3)CC2)c(Cl)c1 [Example 60, N-[3-Chloro-4-[4-(4-hydroxypiperidine-4-carbonyl)piperazine-1-carbonyl]phenyl]-5-[1-(cyanomethyl)-3-(trifluoromethyl)pyrazol-4-yl]-1-methyl-imidazole-2-carboxamide; Formic Acid]  468 nM
4. Cn1c(-c2cn(C3CC3(F)F)nc2C(F)(F)F)cnc1C(=O)Nc1ccc(C(=O)N[C@H]2C[C@H]3CC[C@@H](C2)N3)c(Cl)c1 (mixture of isomers) [Example 346, rac-N-(4-(((1R,3r,5S)-8-azabicyclo[3.2.1]octan-3-yl)carbamoyl)-3-chlorophenyl)-5-(1-(2,2-difluorocyclopropyl)-3-(trifluoromethyl)-1H-pyrazol-4-yl)-1-methyl-1H-imidazole-2-carboxamide formate]  446 nM
5. Cn1c(-c2cn(CC=C(F)F)nc2C(F)(F)F)cnc1C(=O)Nc1ccc(C(=O)N[C@H]2C[C@@H](N)C2)c(Cl)c1 [Example 307, rac-N-(4-(((1s,3s)-3-aminocyclobutyl)carbamoyl)-3-chlorophenyl)-5-(1-(3,3-difluoroallyl)-3-(trifluoromethyl)-1H-pyrazol-4-yl)-1-methyl-1H-imidazole-2-carboxamide 2,2,2-trifluoroacetate]  375 nM
6. CCn1cc(-c2cnc(C(=O)Nc3ccc(C(=O)N4CCN(C(=O)N[C@H]5C[C@@H](N)C5)CC4)c(Cl)c3)n2C)c(C(F)(F)F)n1 [Example 168, rac-N-((1s,3s)-3-aminocyclobutyl)-4-(2-chloro-4-(5-(1-ethyl-3-(trifluoromethyl)-1H-pyrazol-4-yl)-1-methyl-1H-imidazole-2-carboxamido)benzoyl)piperazine-1-carboxamide Hydrochloride]  347 nM
7. Cn1c(-c2cn(CC3CCC3)nc2C(F)(F)F)cnc1C(=O)Nc1ccc(C(=O)N2CCN(C(=O)C3CCNCC3)CC2)c(Cl)c1 [Example 113, N-[3-chloro-4-[4-(piperidine-4-carbonyl)piperazine-1-carbonyl]phenyl]-5-[1-(cyclobutylmethyl)-3-(trifluoromethyl)pyrazol-4-yl]-1-methylimidazole-2-carboxamide;hydrochloride]  187 nM
8. C#CCn1cc(-c2cnc(C(=O)Nc3ccc(C(=O)N4CCN(C(=O)N[C@H]5CCC[C@H]5N)CC4)c(Cl)c3)n2C)c(C(F)(F)F)n1 [Example 82, N-[(1S,2R)-2-aminocyclopentyl]-4-[2-chloro-4-[[1-methyl-5-[1-prop-2-ynyl-3-(trifluoromethyl)pyrazol-4-yl]imidazole-2-carbonyl]amino]benzoyl]piperazine-1-carboxamide]  160 nM

same assay, conditions: Acinetobacter baumannii, ATCC17961, read-out: ATCC 17961 IC90, Acinetobacter baumannii ATCC 17961, Iso-Sensitest broth

Work on `Cn1c(-c2cn(CCF)nc2C(F)(F)F)cnc1C(=O)Nc1ccc(C(=O)N2CCN(C(=O)C3(O)CCCNC3)CC2)c(Cl)c1` (stereo not drawn) [Example 180, N-[3-chloro-4-[4-(3-hydroxypiperidine-3-carbonyl)piperazine-1-carbonyl]phenyl]-5-[1-(2-fluoroethyl)-3-(trifluoromethyl)pyrazol-4-yl]-1-methylimidazole-2-carboxamide; Trihydrochloride] yielded an IC90 of 397 nM.
